These results are taken from PubChem BioAssay AID330 (DTP/NCI, 2004).

Values joined by “and” are separate entries in the source; they are usually repeats but may differ in a detail not shown here. Equal values may be shown once. Inconclusive results and toxic doses are left out.

This assay has as its system P388 leukemia ip, CD2F1 mice, survival T/C. Briefly: NCI In Vivo Anticancer Drug Screen. Data for tumor model P388 Leukemia (intraperitoneal) in CD2F1 (CDF1) mice. The settings on record: endpoint: median survival time, higher = longer survival. The gist of the method: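 Mice carrying the transplanted tumor received test compound or vehicle. Survival was recorded in each group, and the value is the treated-group measurement divided by that of the vehicle-treated control group.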

[1] abbreviates: dose: 60.0 mg/kg/injection, schedule: Q01DX005 (ip), vehicle: saline with Tween-80.
Where [2] appears, read: dose: 120.0 mg/kg/injection, schedule: Q01DX005 (ip), vehicle: saline with Tween-80.
Where [3] appears, read: dose: 50.0 mg/kg/injection, schedule: Q01DX005 (ip), vehicle: Klucel (hydroxypropylcellulose) (HPC).
The mark [4] stands for this setting: dose: 100.0 mg/kg/injection, schedule: Q01DX005 (ip), vehicle: Klucel (hydroxypropylcellulose) (HPC).
Setting [5] is: dose: 200.0 mg/kg/injection, schedule: Q01DX005 (ip), vehicle: Klucel (hydroxypropylcellulose) (HPC).
Setting [6] is: dose: 50.0 mg/kg/injection, schedule: Q01DX005 (ip), vehicle: saline with Tween-80.
[7] abbreviates: dose: 100.0 mg/kg/injection, schedule: Q01DX005 (ip), vehicle: saline with Tween-80.
[8] abbreviates: dose: 50.0 mg/kg/injection, schedule: Q01DX009 (ip), vehicle: saline.
Where [9] appears, read: dose: 200.0 mg/kg/injection, schedule: Q01DX005 (ip), vehicle: saline with Tween-80.
The mark [10] stands for this setting: dose: 100.0 mg/kg/injection, schedule: Q01DX009 (ip), vehicle: saline with Tween-80.
[11] abbreviates: dose: 200.0 mg/kg/injection, schedule: Q01DX009 (ip), vehicle: saline with Tween-80.

As to `NC(Cc1cc([N+](=O)[O-])ccc1CN(CCCl)CCCl)C(=O)O` (stereo not given), the T/C (dose: 0.06 mg/kg/injection, schedule: Q01DX009 (ip), vehicle: Klucel (hydroxypropylcellulose) (HPC)) is 104 % of control; the T/C (dose: 0.11 mg/kg/injection, schedule: Q04DX003 (ip), vehicle: Klucel (hydroxypropylcellulose) (HPC)) is 110 % of control; the T/C (dose: 0.12 mg/kg/injection, schedule: Q01DX009 (ip), vehicle: Klucel (hydroxypropylcellulose) (HPC)) is 120 % of control; the T/C (dose: 0.23 mg/kg/injection, schedule: Q04DX003 (ip), vehicle: Klucel (hydroxypropylcellulose) (HPC)) was 104 % of control; the T/C (dose: 0.25 mg/kg/injection, schedule: Q01DX009 (ip), vehicle: Klucel (hydroxypropylcellulose) (HPC)) is 117 % of control; the T/C (dose: 0.47 mg/kg/injection, schedule: Q04DX003 (ip), vehicle: Klucel (hydroxypropylcellulose) (HPC)) is 120 % of control. Also, the T/C (dose: 1.88 mg/kg/injection, schedule: Q04DX003 (ip), vehicle: Klucel (hydroxypropylcellulose) (HPC)) is 189 % of control; the T/C (dose: 2.0 mg/kg/injection, schedule: Q01DX009 (ip), vehicle: Klucel (hydroxypropylcellulose) (HPC)) was 105 % of control; the T/C (dose: 3.75 mg/kg/injection, schedule: Q04DX003 (ip), vehicle: Klucel (hydroxypropylcellulose) (HPC)) was 119 % of control; the T/C (dose: 4.0 mg/kg/injection, schedule: Q01DX009 (ip), vehicle: Klucel (hydroxypropylcellulose) (HPC)) is 93 % of control; the T/C (dose: 6.25 mg/kg/injection, schedule: Q01DX001 (ip), vehicle: Klucel (hydroxypropylcellulose) (HPC)) was 93 % of control; the T/C (dose: 7.5 mg/kg/injection, schedule: Q04DX003 (ip), vehicle: Klucel (hydroxypropylcellulose) (HPC)) is 99 % of control. In addition, the T/C runs as follows: (dose: 8.0 mg/kg/injection, schedule: Q01DX009 (ip), vehicle: Klucel (hydroxypropylcellulose) (HPC)) 90 % of control; (dose: 15.0 mg/kg/injection, schedule: Q04DX003 (ip), vehicle: Klucel (hydroxypropylcellulose) (HPC)) 91 % of control; (dose: 25.0 mg/kg/injection, schedule: Q01DX001 (ip), vehicle: Klucel (hydroxypropylcellulose) (HPC)) 90 % of control.
For `Nc1ncncc1C(C1=C(O)COC1=O)C1=C(O)COC1=O`, the T/C reads like this: under setting [1], 98 % of control; under setting [2], 100 % of control; (dose: 240.0 mg/kg/injection, schedule: Q01DX005 (ip), vehicle: saline with Tween-80) 98 % of control.
Take `CCCCC(NC(=O)C(CCCC)NC(=O)OCc1ccccc1)C(=O)O` (stereo not given): the T/C under setting [3] was 108 % of control, the T/C under setting [4] is 93 % of control and the T/C under setting [5] was 95 % of control.
Take `CN(C)c1ccc2[nH]c3c(C(=O)O)cc(=O)c(=O)c=3oc2c1`: the T/C runs as follows: under setting [6], 108 % of control; under setting [7], 100 % of control.
As for `[CH3][Ge]([CH3])([Cl])[c]1cc[c]([Ge]([CH3])([CH3])[Cl])cc1`, the T/C was 96 % of control (dose: 3.12 mg/kg/injection, schedule: Q01DX009 (ip), vehicle: saline); 94 % of control (dose: 6.25 mg/kg/injection, schedule: Q01DX009 (ip), vehicle: saline); 113 % of control and 92 % of control (dose: 12.5 mg/kg/injection, schedule: Q01DX009 (ip), vehicle: saline); 110 % of control under setting [8]; 118 % of control (dose: 50.0 mg/kg/injection, schedule: Q04DX003 (ip), vehicle: saline); 89 % of control (dose: 100.0 mg/kg/injection, schedule: Q04DX003 (ip), vehicle: saline).
For `O=C1OC(OC/C(Br)=C(/Br)COC2OC(=O)C(Cl)=C2Cl)C(Cl)=C1Cl` (stereo not given), the T/C reads like this: under setting [1], 106 % of control; under setting [2], 108 % of control.
For `CCCNC1(N(C)C)N=C(N(C)C)N=C(N(C)C)O1` (stereo not given), the T/C runs as follows: (dose: 50.0 mg/kg/injection, schedule: Q01DX005 (ip), vehicle: saline) 102 % of control; (dose: 100.0 mg/kg/injection, schedule: Q01DX005 (ip), vehicle: saline) 95 % of control.
Turning to `COC1NC(=S)N(Cc2ccccc2)C1(C)C` (stereo not given), the T/C (dose: 50.0 mg/kg/injection, schedule: Q01DX009 (ip), vehicle: suspension in saline) is 102 % of control; the T/C (dose: 100.0 mg/kg/injection, schedule: Q01DX009 (ip), vehicle: suspension in saline) was 97 % of control; the T/C (dose: 200.0 mg/kg/injection, schedule: Q01DX009 (ip), vehicle: suspension in saline) was 93 % of control.
With `CC(=O)O[C@H]1C(=O)C=C[C@H](C)[C@@H]2CC[C@H](OC(C)(C)C)[C@@]12C`, the T/C is, setting by setting: under setting [6], 102 % of control; under setting [7], 98 % of control; under setting [9], 108 % of control.
With `CCN(CC)c1cc(C(=O)O)cc(N(CC)CC)n1`, the T/C is, setting by setting: (dose: 6.25 mg/kg/injection, schedule: Q01DX005 (ip), vehicle: sodium bicarbonate) 104 % of control; (dose: 12.5 mg/kg/injection, schedule: Q01DX005 (ip), vehicle: Klucel (hydroxypropylcellulose) (HPC)) 98 % of control and 100 % of control; (dose: 12.5 mg/kg/injection, schedule: Q01DX005 (ip), vehicle: sodium bicarbonate) 114 % of control; (dose: 25.0 mg/kg/injection, schedule: Q01DX005 (ip), vehicle: Klucel (hydroxypropylcellulose) (HPC)) 98 % of control and 106 % of control; (dose: 25.0 mg/kg/injection, schedule: Q01DX005 (ip), vehicle: sodium bicarbonate) 120 % of control; under setting [3], 100 % of control and 120 % of control and 123 % of control. For the same molecule, for the setting “dose: 50.0 mg/kg/injection, schedule: Q01DX005 (ip), vehicle: sodium bicarbonate”, the T/C was 121 % of control.
Consider `COc1cc2ccccc2c2c1OP(=O)(O)Oc1c(OC)cc3ccccc3c1-2`, for which the T/C is, setting by setting: (dose: 100.0 mg/kg/injection, schedule: Q01DX001 (ip), vehicle: saline with Tween-80) 100 % of control; (dose: 200.0 mg/kg/injection, schedule: Q01DX001 (ip), vehicle: saline with Tween-80) 92 % of control; (dose: 400.0 mg/kg/injection, schedule: Q01DX001 (ip), vehicle: saline with Tween-80) 114 % of control.
As to `C=CCC(NC(=O)c1ccccc1)C(=O)O` (stereo not given), the T/C reads like this: (dose: 50.0 mg/kg/injection, schedule: Q01DX009 (ip), vehicle: saline with Tween-80) 100 % of control; under setting [10], 98 % of control; under setting [11], 95 % of control.
Regarding `CC1CCC(C(C)C)C(NC(=O)c2ccncc2)C1` (stereo not given), the T/C was 100 % of control under setting [3], 101 % of control under setting [4] and 105 % of control under setting [5].
For `c1ccc(/C(=N\Nc2ccccn2)c2ccccn2)cc1`, the T/C reads like this: under setting [6], 112 % of control; under setting [7], 117 % of control; under setting [9], 108 % of control.
For the molecule `S=C(S)C1=C(NCCCCCCNC2=C(C(=S)S)CCC2)CCC1`, the T/C is 100 % of control (dose: 100.0 mg/kg/injection, schedule: Q01DX001 (ip), vehicle: Klucel (hydroxypropylcellulose) (HPC)); 94 % of control (dose: 200.0 mg/kg/injection, schedule: Q01DX001 (ip), vehicle: Klucel (hydroxypropylcellulose) (HPC)); 100 % of control (dose: 400.0 mg/kg/injection, schedule: Q01DX001 (ip), vehicle: Klucel (hydroxypropylcellulose) (HPC)).
Regarding `CCOC(=O)NCCCCl`, the T/C runs as follows: under setting [8], 99 % of control; (dose: 100.0 mg/kg/injection, schedule: Q01DX009 (ip), vehicle: saline) 101 % of control; (dose: 200.0 mg/kg/injection, schedule: Q01DX009 (ip), vehicle: saline) 107 % of control.
For `CN(C)c1cc(N(C)C)c2ccccc2n1`, the T/C was 102 % of control (dose: 12.5 mg/kg/injection, schedule: Q01DX009 (ip), vehicle: Klucel (hydroxypropylcellulose) (HPC)); 106 % of control (dose: 25.0 mg/kg/injection, schedule: Q01DX009 (ip), vehicle: Klucel (hydroxypropylcellulose) (HPC)); 97 % of control (dose: 100.0 mg/kg/injection, schedule: Q01DX009 (ip), vehicle: Klucel (hydroxypropylcellulose) (HPC)).
Turning to `C[Si](C)(CCCOCC1CO1)O[Si](C)(C)CCCOCC1CO1` (stereo not given), the T/C reads like this: under setting [10], 100 % of control; under setting [11], 101 % of control; (dose: 400.0 mg/kg/injection, schedule: Q01DX009 (ip), vehicle: saline with Tween-80) 114 % of control.
